Test systems include 786-0 renal; BT-549 breast; DU-145 prostate; HOP-92 NSCLC; HT29 colon; IGROV1 ovarian; KM12 colon; MOLT-4 leukemia; SF-295 CNS; TK-10 renal.
Common to all, as to experiment: NCI anticancer screen, dose series, 48 h

Several values for one entry are separate records, joined by “and”; a condition that tells them apart may be missing. Identical values can stand only once.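 Where inhibition never reached the appropriate level, the endpoint shown equals the highest concentration tested. Otherwise, values were interpolated linearly from a five-concentration, 48-hour dose response in 96-well plates. The concentration for 50% growth inhibition is given as GI50. TGI marks complete inhibition of growth.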 Some results are limits rather than exact numbers.

Here are results for 9 compounds from PubChem BioAssay (NCI).

As for `COC(=O)c1ccc2nc(-c3cc4ccccc4n3C)n(CCCCOc3cc4c(cc3OC)C(=O)N3CCC[C@H]3C=N4)c2c1`, the GI50 in the assay on 786-0 renal is 789 nM; in the assay on BT-549 breast, 284 nM; with DU-145 prostate, 234 nM; in the assay on HOP-92 NSCLC, 347 nM; with HT29 colon, 929 nM; in the assay on IGROV1 ovarian, 254 nM. Besides, the GI50 in the assay on KM12 colon was 0.255 µM; in the assay on MOLT-4 leukemia, 298 nM; with SF-295 CNS, 0.667 µM; in the assay with TK-10 renal, 430 nM. Further, the TGI with 786-0 renal stood at 2.46 µM; in the assay with BT-549 breast, 1.13 µM; with DU-145 prostate, 0.564 µM; in the assay with HOP-92 NSCLC, 2.77 µM; in the assay with HT29 colon, 5.49 µM; with IGROV1 ovarian, 0.889 µM. For the same compound, the TGI in the assay with KM12 colon amounted to 0.787 µM; in the assay on SF-295 CNS it was 4.85 µM; with TK-10 renal, 3.29 µM.

As to `CN1CC=C(c2cc(NC(=O)Nc3ccc(Oc4ccnc(NC(=O)C5CC5)c4)c(F)c3)cc(C(F)(F)F)c2)CC1`, the GI50 in the assay with 786-0 renal was 232 nM; with BT-549 breast, 1600 nM; with DU-145 prostate, 212 nM; with HOP-92 NSCLC it was 1550 nM; in the assay on HT29 colon, 166 nM; with IGROV1 ovarian, 244 nM. For the same compound, the GI50 was 0.0332 µM in the assay on KM12 colon, 202 nM with MOLT-4 leukemia, 0.933 µM in the assay on SF-295 CNS and 1620 nM with TK-10 renal. Also, the TGI in the assay on 786-0 renal was determined as 0.908 µM; with BT-549 breast it was 3.87 µM; with DU-145 prostate, 1.62 µM; in the assay on HOP-92 NSCLC, 3.58 µM; with HT29 colon, 0.678 µM; in the assay on IGROV1 ovarian, 1.34 µM. Moreover, the TGI in the assay on KM12 colon was 0.68 µM; with MOLT-4 leukemia it was 0.943 µM; with SF-295 CNS it was 2.94 µM; with TK-10 renal, 3.91 µM.

Turning to `CS(=O)(=O)CCNCc1ccc(-c2ccc3ncnc(Nc4ccc(OCc5cccc(F)c5)c(Cl)c4)c3c2)o1`, the GI50 in the assay on 786-0 renal is > 10000 nM and 4430 nM and 5460 nM; in the assay on BT-549 breast, > 10000 nM and 19700 nM and 7430 nM; in the assay on DU-145 prostate, 7110 nM and 2610 nM and 6750 nM; with HOP-92 NSCLC it was 2170 nM and 18600 nM and 2030 nM; with HT29 colon, 7360 nM and 2200 nM; in the assay with IGROV1 ovarian, 2020 nM and 338 nM and 387 nM. The GI50 was 8.92 µM and 2.03 µM and 5.25 µM in the assay on KM12 colon; 4540 nM and 2930 nM and 2940 nM with MOLT-4 leukemia; 6.84 µM and 5.32 µM and 3.54 µM in the assay with SF-295 CNS; 170 nM and 176 nM and 38.5 nM in the assay with TK-10 renal. Besides, the TGI with 786-0 renal is > 10 µM and > 42.3 µM and 29.2 µM; in the assay on BT-549 breast it was > 10 µM and > 47.5 µM and 44.7 µM; in the assay with DU-145 prostate, > 10 µM and > 100 µM and 34.8 µM; in the assay with HOP-92 NSCLC it was > 10 µM and > 100 µM and 14.4 µM; in the assay on HT29 colon it was > 10 µM and 15.8 µM; in the assay with IGROV1 ovarian it was > 10 µM and 26.1 µM. Besides, the TGI in the assay on KM12 colon was > 10 µM and 4 µM and 24.5 µM; in the assay with MOLT-4 leukemia, > 10 µM and > 100 µM and 21.9 µM; in the assay on SF-295 CNS it was > 10 µM and > 100 µM and 24.8 µM; with TK-10 renal, > 10 µM and > 100 µM and 11.2 µM.

Turning to `CC1CCCC(C(=O)CC2CC(=O)NC(=O)C2)C1=O` (centres undefined), the TGI in the assay with 786-0 renal, with BT-549 breast, with DU-145 prostate, in the assay with HOP-92 NSCLC, in the assay with HT29 colon and in the assay on IGROV1 ovarian was above 100 µM throughout. In addition, the TGI with KM12 colon, in the assay on MOLT-4 leukemia, in the assay on SF-295 CNS and with TK-10 renal was above 100 µM each time.

For the compound `Fc1cc(F)c(F)c(S)c1F`, the TGI is above 100 µM in the assay with 786-0 renal; 52 µM in the assay on BT-549 breast; above 100 µM in the assay on DU-145 prostate; above 100 µM with HOP-92 NSCLC; above 100 µM in the assay with HT29 colon; above 100 µM in the assay on IGROV1 ovarian. Besides, the TGI is above 100 µM with KM12 colon, 66 µM in the assay with MOLT-4 leukemia, above 100 µM in the assay with SF-295 CNS and above 100 µM in the assay with TK-10 renal.

In the case of `CCc1ccccc1NC(=O)C(C#N)C1=C(Cl)C(=O)c2ccccc2C1=O` (centres undefined), the TGI is 31.4 µM with 786-0 renal; 71.7 µM in the assay with BT-549 breast; 32.2 µM with DU-145 prostate; above 100 µM in the assay on HOP-92 NSCLC; 37.9 µM in the assay with HT29 colon; 32.8 µM in the assay with IGROV1 ovarian. Also, the TGI is 28.4 µM with KM12 colon, above 100 µM in the assay on MOLT-4 leukemia, 52.6 µM in the assay with SF-295 CNS and 33.7 µM in the assay with TK-10 renal.

As to `OCc1ccc(-c2csc(-c3ccc(CO)o3)c2)o1`, the GI50 was 69500 nM in the assay on 786-0 renal; 21400 nM in the assay on BT-549 breast; 37700 nM in the assay with DU-145 prostate; 20400 nM in the assay with HOP-92 NSCLC; 36600 nM in the assay on HT29 colon; 926 nM with IGROV1 ovarian. Besides, the GI50 is 39.1 µM in the assay with KM12 colon, 20700 nM in the assay on MOLT-4 leukemia, 13.9 µM in the assay with SF-295 CNS and 640 nM with TK-10 renal. Moreover, the TGI in the assay with 786-0 renal was above 100 µM; in the assay with BT-549 breast, above 80.7 µM; in the assay with DU-145 prostate, above 100 µM; in the assay with HOP-92 NSCLC, 86.4 µM; with HT29 colon, above 100 µM; in the assay with IGROV1 ovarian, above 100 µM. Besides, the TGI with KM12 colon was above 100 µM; with MOLT-4 leukemia it was 60.1 µM; in the assay on SF-295 CNS, above 100 µM; with TK-10 renal, above 37.1 µM.

On to `NC(=O)c1cccc2c(N[C@H](CN3CCC3)c3ccc(Cl)c(C(F)(F)F)c3)ncnc12`, for which the GI50 with 786-0 renal is 92.1 nM; in the assay with BT-549 breast it was 657 nM; in the assay on DU-145 prostate, 2240 nM; in the assay with HOP-92 NSCLC, 140 nM; in the assay with HT29 colon it was 981 nM; in the assay with IGROV1 ovarian, 98.9 nM. The GI50 is 0.885 µM with KM12 colon, 257 nM with MOLT-4 leukemia, 0.293 µM in the assay with SF-295 CNS and 156 nM in the assay with TK-10 renal. Moreover, the TGI in the assay on 786-0 renal was 1.76 µM; in the assay on BT-549 breast, 3.61 µM; in the assay on DU-145 prostate it was 16.2 µM; in the assay on HOP-92 NSCLC it was 2.27 µM; in the assay on HT29 colon, 12.1 µM; with IGROV1 ovarian, 2.63 µM. Moreover, the TGI was determined as 13.3 µM in the assay with KM12 colon, 3.46 µM with MOLT-4 leukemia, 2.88 µM in the assay on SF-295 CNS and 3.34 µM in the assay on TK-10 renal.

As to `O=C([O][Hg][c]1ccccc1)c1ccccc1`, the GI50 with 786-0 renal was 1810 nM; with BT-549 breast, 1230 nM; with DU-145 prostate, 1950 nM; in the assay on HOP-92 NSCLC, 1350 nM; in the assay on HT29 colon, 2940 nM; in the assay with IGROV1 ovarian, 1480 nM. Further, the GI50 was 11.6 µM in the assay on KM12 colon, 1380 nM in the assay with MOLT-4 leukemia, 12.2 µM with SF-295 CNS and 1600 nM with TK-10 renal. The TGI worked out at 3.5 µM in the assay with 786-0 renal; 2.64 µM in the assay on BT-549 breast; 4.13 µM in the assay on DU-145 prostate; 2.72 µM in the assay with HOP-92 NSCLC; 9.82 µM in the assay with HT29 colon; 3.58 µM in the assay on IGROV1 ovarian. The TGI in the assay with KM12 colon stood at 24.1 µM; in the assay with MOLT-4 leukemia, 5.7 µM; with SF-295 CNS, 25.5 µM; in the assay on TK-10 renal it was 2.95 µM.
